Test results as given in ChEMBL document CHEMBL1156829 (Proc Natl Acad Sci U S A, 2008).

Assays:
[1] = system: Plasmodium falciparum; assay: NOVARTIS: Inhibition of Plasmodium falciparum W2 (drug-resistant) proliferation in erythrocyte-based infection assay; type: functional, organism-based; conditions: Plasmodium falciparum, W2; read-out: EC50
[2] = system: Plasmodium falciparum; assay: NOVARTIS: Inhibition of Plasmodium falciparum 3D7 (drug-susceptible) proliferation in erythrocyte-based infection assay; type: functional, organism-based; conditions: Plasmodium falciparum, 3D7
[3] = NOVARTIS: Cytotoxicity against human hepatocellular carcinoma cell line (Huh7); type: toxicity, cell-based, Huh-7; conditions: Huh7 cells (hepatocellular carcinoma cell line)

Row | Compound | EC50 [1] | EC50 [2] | CC50 [3]
1 | CCN(CC)S(=O)(=O)c1ccc(-c2csc(=Nc3cccc4ccccc34)n2C)cc1 | > 1220 nM | 60.9 nM | > 10000 nM
2 | Cc1ccccc1/C=C1\SC(=Nc2ccccc2)NC1=O | > 12500 nM | 1060 nM | > 100000 nM
3 | CCOC(=O)C(C)Oc1cccc2c(=O)n(CC(=O)Nc3ccc(OC(F)(F)F)cc3)ccc12 (centres undefined) | > 1220 nM | > 1250 nM | > 10000 nM
4 | O=C(Nc1ccc(-c2cc(-c3ccccc3)nc(-c3ccc(NC(=O)c4cccc([N+](=O)[O-])c4)cc3)n2)cc1)c1cccc([N+](=O)[O-])c1 | 1240 nM | 1340 nM | > 10000 nM
5 | CC1=NOC(=O)/C1=C\c1cccs1 | > 1240 nM | > 1250 nM | > 10000 nM
6 | CCOc1ccc(N2C(N)=NC(N)=NC2(C)C)cc1 | > 12500 nM | 79 nM | > 100000 nM
7 | O=C(Nc1ccc(-c2nnc(-c3ccc(NC(=O)c4ccccc4[N+](=O)[O-])cc3)o2)cc1)c1ccccc1[N+](=O)[O-] | > 12500 nM | 406 nM | > 100000 nM
8 | CC1(C)N=C(N)N=C(N)N1c1ccc(I)cc1 | > 12500 nM | 7.23 nM | > 100000 nM
9 | COc1ccc(N2C(N)=NC(N)=NC2(C)C)cc1 | > 1250 nM | 13.8 nM | > 10000 nM
10 | CC(C)CNc1nc(NCCCN2CCCC2)ncc1C(=O)NCc1ccccc1 | > 1230 nM | 664 nM | > 10000 nM
11 | CC(C)CC(=O)OC1C(N2CCCCC2)c2c(ccc(C=CC(=O)N3CCCCC3)c2O)OC1(C)C (centres undefined) | > 12300 nM | 2600 nM | > 100000 nM
12 | O=C(C1CC1)n1cc(C(=O)C(F)(F)F)c2ccccc21 | > 1220 nM | 1370 nM | > 10000 nM
13 | COC(=O)C1=C(C)N(c2ccc(N(C)C)cc2)C(C)=C(C(=O)OC)C1c1ccc(Br)cc1 | > 1220 nM | > 1250 nM | > 10000 nM
14 | Cc1ccc(C)c(N2C(=O)CC(Cc3ccc(Cl)cc3)C2=O)c1 (centres undefined) | 1230 nM | > 1250 nM | > 10000 nM
15 | CCOC(=O)c1cnc2c(OC)cccc2c1Nc1cc(C)c(Cl)cc1OC | > 1230 nM | 539 nM | > 10000 nM
16 | CCCCCN(C(=O)c1ccc2ccccc2c1)C(CC)c1nc2ccccc2c(=O)n1-c1ccccc1OC (centres undefined) | > 1230 nM | 752 nM | > 10000 nM
17 | COc1cc(OC)cc(-n2nc(C(=O)NC3CCCCC3)c3ccccc3c2=O)c1 | > 1220 nM | > 1250 nM | > 10000 nM
18 | CCCn1c(-c2cccc(Br)c2)nc2ccccc21 | > 1220 nM | > 1140 nM | > 10000 nM
19 | CCOc1cc([N+](=O)[O-])cc(C=Nc2cccc(NC(=O)c3ccco3)c2)c1O | > 1240 nM | > 1250 nM | > 10000 nM
20 | O=C(NC1CCN(Cc2ccccc2)CC1)c1cc([N+](=O)[O-])cc([N+](=O)[O-])c1 | 1220 nM | 476 nM | > 10000 nM
21 | O=C(Cn1c(-c2ccccc2)c[n+]2ccsc12)c1ccccc1 | 1220 nM | 517 nM | > 10000 nM
22 | COc1ccc(C(=O)Nc2ccc3nsnc3c2)cc1OC | > 1250 nM | > 1250 nM | > 10000 nM
23 | COc1ccc(-c2nc3cc(Cc4ccc5[nH]c(-c6ccc(OC)cc6)nc5c4)ccc3[nH]2)cc1 | 775 nM | 234 nM | 6220 nM
24 | Cc1cc(CNC(=O)CC2C(=O)NCCN2Cc2ccccc2C(F)(F)F)nn1C (centres undefined) | > 1250 nM | > 27.4 nM | > 10000 nM
25 | CN(C)c1ccc(N2C(N)=NC(N)=NC2(C)C)cc1 | > 1250 nM | 18.8 nM | > 10000 nM
26 | COc1cc2c(cc1OC)C(CCCCCl)=NC(C)(C)C2 | > 12500 nM | 343 nM | > 100000 nM
27 | O=C(C=Cc1ccccc1Cl)Nc1ccc(Oc2ccc3ccccc3c2Cl)c(Cl)c1 | > 12500 nM | 1030 nM | > 100000 nM

Row | Compound | EC50 [1] | EC50 [2] | CC50 [3]
28 | CC1=C(C(=O)OC2CCCCC2)C(c2ccc(Cl)c(Cl)c2)C2=C(CCCC2=O)N1 (centres undefined) | > 12500 nM | 735 nM | > 100000 nM
29 | COc1cccc(-c2nc(CS(=O)(=O)CC(=O)N3CC(C)CC(C)C3)c(C)o2)c1 (centres undefined) | > 1250 nM | 136 nM | > 10000 nM
30 | CCCCCN(C(=O)c1ccc(C(C)(C)C)cc1)C(CC)c1nc2ccccc2c(=O)n1-c1ccccc1OC (centres undefined) | > 1250 nM | > 117 nM | > 10000 nM
31 | CCOC(=O)c1c(NC(=O)CSc2nnc(CNC(=O)c3cccs3)n2-c2cccc(Cl)c2)sc2c1CCCC2 | > 1240 nM | > 1140 nM | > 10000 nM
32 | CC(C)N(CC(=O)Nc1cc(C(C)(C)C)nn1-c1ccc(Cl)cc1)C(=O)c1cccc2ccccc12 | > 1240 nM | 1210 nM | > 10000 nM
33 | O=C(O)c1nsnc1C(O)C(O)C(=O)O (centres undefined) | > 1240 nM | > 1410 nM | > 10000 nM
34 | CCC(c1nc2cc(Cl)ccc2c(=O)n1CC)N(CC)C(=O)c1ccc2ccccc2c1 (centres undefined) | 1230 nM | > 1220 nM | > 10000 nM
35 | O=C1C(Nc2ccc(O)cc2)=CC(=NS(=O)(=O)c2cccs2)c2ccccc21 | 297 nM | 590 nM | 2430 nM
36 | CC[n+]1c(/C=C/C=C2\N(C)c3ccccc3C2(C)C)n(-c2ccccc2)c2ccc(Cl)cc21 | > 1220 nM | > 1500 nM | > 10000 nM
37 | Cc1ccc(N2C(N)=NC(N)=NC2(C)C)c(C)c1 | > 12500 nM | 105 nM | > 100000 nM
38 | Cc1cc(C)cc(OCC(=O)N2N=C(C(C)C)CC2(O)C(F)(F)F)c1 (centres undefined) | > 1220 nM | 1750 nM | > 10000 nM
39 | COc1cc(/C=C2\SC(c3ccc(C)cc3)=NC2=O)cc(OC)c1OC | > 1220 nM | > 1250 nM | > 10000 nM
40 | O=C1C2C(C(=O)N1Cc1ccccc1)C1(c3ccccc3)C(=O)C2(c2ccccc2)C(c2ccccc2)=C1c1ccccc1 (centres undefined) | > 12500 nM | 822 nM | > 100000 nM
41 | Cc1ccc(N2C(=O)C3C(C2=O)C2(c4ccccc4)C(=O)C3(c3ccccc3)C(c3ccccc3)=C2c2ccccc2)cc1[N+](=O)[O-] (centres undefined) | > 12500 nM | 822 nM | > 100000 nM
42 | CC1=C2C(=O)c3ccccc3C2NC(=O)N1 (centres undefined) | > 12500 nM | > 352 nM | > 100000 nM
43 | COc1cccc(NC(=O)N(Cc2ccccc2)C(C)c2nc3ccccc3c(=O)n2-c2cc(C)ccc2OC)c1 (centres undefined) | 1220 nM | 1240 nM | > 10000 nM
44 | Cc1cccc(-n2nc3c(c2NC(=O)c2ccc4c(c2)OCO4)CS(=O)(=O)C3)c1C | > 1250 nM | 124 nM | > 10000 nM
45 | CCCc1ccc(OCc2nc(-c3ccc(NC(=O)c4cccs4)cc3)no2)cc1 | > 12500 nM | 825 nM | > 100000 nM
46 | CN1CCCN(C(=O)C2CC23CCN(Cc2ccc(N(C)c4ccccc4)cc2)CC3)CC1 (centres undefined) | 2580 nM | 1320 nM | 20800 nM
47 | CC(C)(C)C(=O)Nc1ccc(C23CC4CC(CC(c5ccccc5)(C4)C2)C3)cc1 | > 12500 nM | 716 nM | > 100000 nM
48 | Cc1ccc(-c2nnc(N3CCOCC3)c3ccccc23)cc1S(=O)(=O)N1CCN(C)CC1 | > 1220 nM | > 1250 nM | > 10000 nM
49 | COc1ccc(C2(Cc3ccccc3)NC(=O)NC2=O)cc1 (centres undefined) | > 1220 nM | 1340 nM | > 10000 nM
50 | Cc1ccc2c(c1)N=C(c1ccc([N+](=O)[O-])cc1)CO2 | > 12500 nM | > 1300 nM | > 100000 nM
51 | O=C(O)c1cc([N+](=O)[O-])ccc1Oc1cncc(Cl)c1 | > 1250 nM | 33.3 nM | > 10000 nM
52 | Oc1ccc(-c2cncc(NCc3cccc(O)c3)c2)cc1 | 1250 nM | 626 nM | > 10000 nM
53 | CCCCOc1ccc(C(=O)NCCOc2cccc(OC)c2)cc1 | > 12500 nM | 288 nM | > 100000 nM
